Patent publication US7169568B2, “Method for screening molecules that exert a neurotrophic effect through activation of neurotrophin receptors” (New York University, priority 2000, dated 2007)
Entries after “also recorded” stand apart in the source; their conditions may differ.

Legend:
[1] = test system: TrkA receptors; assay: TrkA receptor tyrosine phosphorylation in PC12 (615) cells (anti-pan-Trk immunoprecipitation, PY99 anti-phosphotyrosine immunoblot); assay type: cell-based; details: PC12 (615) cells
Protocol: Stably transfected PC12 cells expressing high levels of TrkA (615) were treated with the indicated compounds for 2 hours. The cells were subsequently harvested in lysis buffer as described in the Materials and Methods of Example 1. Lysates were immunoprecipitated with anti-pan Trk rabbit antiserum. Immunocomplexes were analyzed by immunoblotting with anti-phosphotyrosine antibody (PY99).
In FIG. 2A, different concentrations of adenosine were administered to PC12615 cells for 2 hours or NGF (1 ng/ ml) for 10 min. Cells were also treated with CGS21680 at the indicated dose for 2 hours. In FIG. 2B, PC12 cells (615) were treated with adenosine (10 μM) for various times or with 5 ng/ml NGF for 10 min. Phosphorylated TrkA receptors were detected by immunoblot analysis using PY99 anti-phosphotyrosine antibodies. The amount of Trk receptors in each condition was verified by immunoblotting.
In FIG. 3A, PC12 cells (615) were treated with the A2A agonist CGS 21680 (10 nM) and an A1 agonist CPA (10 nM) for 2 hr. ZM 241385 (10 nM), an A2A antagonist, was incubated with the cells for 15 min prior to treatment with adenosine (10 μM) for 2 hours. In FIG. 3B, PC12 cells (615) were incubated with the indicated concentrations of PP1, a Src family kinase inhibitor (Hanke et al, 1996), for 30 min, and then treated with adenosine (10 μM) for 2 hours. Activation of TrkA was assessed by immunoprecipitation and immunoblot analysis using PY99 anti-phosphotyrosine antibody.
In FIG. 7A, different concentrations of PACAP27 were administered to PC12 (615) cells for 2 hours or NGF (5 ng/ml) for 10 min. […] Phosphorylated TrkA receptors were detected by immunoblot analysis using PY99 anti-phosphotyrosine antibodies. The level of Trk receptors for each condition was verified by immunoblotting with anti-Trk antibodies.
(§1) Immunoprotection and Immunoblotting. PC12 cells or PC12-615 cells (Hempstead et al, 1992), were maintained in Dulbecco's Modified Eagle's Medium (DMEM) containing 10% fetal bovine serum (FBS) supplemented with 100 units/ml penicillin, 100 μg/ml streptomycin, and 2 mM glutamine plus 200 μg/ml G418. Cells were placed in low serum medium (1% FBS, 0.5% horse serum) overnight prior to experiments. Cell lysates from PC12, 615 cells, or hippocampal cells were incubated in lysis buffer (1% NP40) for 4 hours to overnight at 4° C. with anti-pan-Trk polyclonal antibody, followed by incubation with protein A-Sepharose beads. Equivalent amounts of protein were analyzed for each condition. The beads' were washed five times with lysis buffer and the immune complexes were boiled in SDS-sample buffer and loaded on sodium dodecyl sulfate-polyacrylamide electrophoresis (SDS-PAGE) gels for immunoblot analysis. The immunoreactive protein bands were detected by ECL reagents based upon enhanced chemiluminescence procedure (Amersham Pharmacia).
Immunoprecipitated and Immunoblotting. PC12 (615) cells were maintained in DMEM containing 10% FBS supplemented with 100 units/ml penicillin, 100 μg/ml streptomycin, and 2 mM glutamine plus 200 μg/ml G418. Cells were placed in serum free medium overnight before experiments. Cell lysates from PC12(615) cells, or basal forebrain cells were incubated in lysis buffer (1% Nonidet P-40) for 4 hrs to overnight at 4° C. with anti-pan-Trk polyclonal antibody followed by incubation with protein A-Sepharose beads. Equivalent amounts of protein were analyzed for each condition.

[2] = test system: Akt; assay: Akt activation in PC12 cells (anti-phospho Akt immunoblot); assay type: cell-based; details: PC12 cells; adenosine 10 μM; CGS 21680 data not shown
Protocol: as §1, with “PC12 cells (615) were treated with adenosine (10 μM) for various times in the presence or absence of […] (100 nM) or LY294002 (10 μM). The cells were subsequently harvested in lysis buffer; lysates and immunoprecipitated samples were subsequently immunoblotted with anti-phospho MAP kinase, anti-phospho Akt, and anti-phosphotyrosine. Reprobing with anti-MAP kinase and anti-pan-Trk antibodies was carried out to ensure equal protein loading. To assess the activity of Akt, endogenous Akt can be immunoprecipitated from lysates with anti-Akt and the proteins assayed in Western blots with anti-phospho-Akt antibodies. Use of the anti-Akt antibody versus the anti-phospho-Akt antibody on lysates can give a comparative assessment of the relative level of the enzyme and extent of activation (Kim et al., 2001). […]” for “Immunoprotection”

[3] = molecular target: T1, TrkA (Homo sapiens, UniProt P04629); assay: 125I-NGF equilibrium binding, PC12 cells stably overexpressing TrkA; parameters: expressed in transfected cells; details: for Displacement of 125I-NGF binding: PC12 cells overexpressing TrkA, adenosine 1 mM, CGS 21680 1 μM; for Specific Binding of 125I-NGF: 30 minutes at 25° C., control 14316 +/− 350
Protocol: (§2) ^125I-NGF Binding Analysis. For equilibrium binding studies, ^125I-NGF was prepared as described previously (Hempstead et al, 1989). PC12 cells stably overexpressing TrkA (2×10^5 cells) and HEK 293 cells expressing TrkA (2×10^5) were incubated with ^125I-NGF in the absence and presence of adenosine compounds for 30 minutes at 25° C. The cells were then washed twice with PBS, and ^125I-NGF stripped with an acid solution (0.2 M acetic acid, 0.5 M NaCl). Nonspecific binding was assessed by adding unlabeled NGF at a final concentration of 1000 ng/ml and represented less than 20% of total binding. Specific binding was defined as total binding minus nonspecific binding. All conditions were carried out in triplicate and SEM calculated.
Target sequence in this assay (P04629 33-796): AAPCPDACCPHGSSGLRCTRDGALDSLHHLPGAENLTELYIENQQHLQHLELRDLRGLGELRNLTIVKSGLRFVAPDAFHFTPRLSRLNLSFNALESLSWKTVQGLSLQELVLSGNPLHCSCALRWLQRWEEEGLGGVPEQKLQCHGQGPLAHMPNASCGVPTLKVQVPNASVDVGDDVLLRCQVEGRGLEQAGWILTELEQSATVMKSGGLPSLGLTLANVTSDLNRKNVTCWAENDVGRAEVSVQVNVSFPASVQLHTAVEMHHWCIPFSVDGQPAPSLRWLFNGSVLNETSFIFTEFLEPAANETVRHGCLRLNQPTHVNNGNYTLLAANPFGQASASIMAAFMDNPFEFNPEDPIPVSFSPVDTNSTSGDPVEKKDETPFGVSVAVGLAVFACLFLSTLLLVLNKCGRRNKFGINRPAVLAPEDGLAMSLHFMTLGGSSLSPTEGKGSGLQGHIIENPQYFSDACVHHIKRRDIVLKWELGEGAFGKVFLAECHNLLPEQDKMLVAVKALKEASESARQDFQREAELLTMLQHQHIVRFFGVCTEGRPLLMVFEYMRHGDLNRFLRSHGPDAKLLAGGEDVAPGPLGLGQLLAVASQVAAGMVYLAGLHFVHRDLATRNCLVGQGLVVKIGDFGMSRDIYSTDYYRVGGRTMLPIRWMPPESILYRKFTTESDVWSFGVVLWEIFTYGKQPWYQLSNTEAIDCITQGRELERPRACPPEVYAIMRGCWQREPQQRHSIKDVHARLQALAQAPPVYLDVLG

[4] = molecular target: T1, TrkA; assay: 125I-NGF equilibrium binding, HEK 293 cells expressing TrkA; parameters: expressed in transfected cells; host or cells: HEK 293 cells; details: for Specific Binding of 125I-NGF: 293/TrkA, 1 μM, 30 minutes at 25° C., control 39076 +/− 2885; for Displacement of 125I-NGF binding: 293 cells that expressed TrkA, excess concentrations
Protocol: as §2
Target sequence in this assay (P04629 33-796, species assumed): as the sequence (P04629 33-796) above

| Specific Binding of 125I-NGF ([3]; Pc12, 1 mM) | Compound | Activation of TrkA receptor activity ([1]; 1 nM, 2 hours) | Activation of Akt (phospho-specific antibody) [2] | Displacement of 125I-NGF binding [3] | Specific Binding of 125I-NGF ([3]; Pc12, 1 μM) | Specific Binding of 125I-NGF [4] | Displacement of 125I-NGF binding [4] | Concentration range of the effect upon TrkA receptor activity ([1]; 2 hours) | Time required for increase in TrkA activation ([1]; adenosine 10 μM) | Activation of TrkA receptors (tyrosine phosphorylation) ([1]; ligand for 2 hours, adenosine 10 μM) |
| --- | --- | --- | --- | --- | --- | --- | --- | --- | --- | --- |
| – | CCNC(=O)[C@H]1O[C@@H](n2cnc3c(N)nc(NCCc4ccc(CCC(=O)O)cc4)nc32)[C@H](O)[C@@H]1O [CGS 21680, 2-[(4-(2-carboxyethyl)phenylethyl)]aminoadenosine-5′-N-ethylcarboxamide] | verified | able to activate Akt | no displacement | 14237 +/− 1055 | 39568 +/− 2032 | did not displace | – | – | – |
| 14403 +/− 888 | Nc1ncnc2c1ncn2[C@@H]1O[C@H](CO)[C@@H](O)[C@H]1O [adenosine] | – | able to activate Akt | no displacement | – | 36618 +/− 4185 | did not displace | low nanomolar range; also recorded: low concentration range | at least 90 minutes | Activated TrkA receptors were observed |
